Data set [1] has as its system mCherry-expressing S. aureus Newman. Description: Zebrafish embryo model of S. aureus yolk infection, antibiotic treatment efficacy. It counts as in vivo, Staphylococcus aureus. The method, then: With the aim to study the in vivo efficacy of drugs, 30 hpf zebrafish embryos were infected with 50 CFU of mCherry-expressing S. aureus Newman. Embryos were then left to recover from injection for two hours and subsequently treated with various reference antibiotics. Antibiotic treatment was performed via bath water immersion as well as via microinjection into the yolk (local treatment) and the caudal vein (systemic treatment) to study whether differences in in vivo activity exist between the three administration routes. Survival was assessed daily until 120 hpf. Additionally, the infection was visualized and quantified by means of fluorescence microscopy at 24 h post treatment (hpt). At the end of every experiment, living embryos (and dead embryos, if possible) were homogenized to determine the remaining bacterial count. Five approved antibiotics from different classes were assessed in vivo. The chosen drugs ought to differ in physicochemical properties, such as molecular weight and polarity, in order to detect a pattern between successful administration routes and the physicochemical properties of the drug. Prior to efficacy assessment, drug-mediated toxicity in zebrafish embryos was investigated using the same administration routes (Figure S3). For microinjection, a fixed dose of 20 to 30 mg/kg was used for each antibiotic. The concentration for bath water immersion was based on the minimum inhibitory concentration (MIC) and the maximum tolerated concentration (MTC) of the drug, whereby it is generally recommended to use 50- to 100-fold the antibacterial MIC to see a positive effect.
Pulled glass capillaries for microinjection (Table S2) were prepared using a micropipette puller (P-1000, Sutter Instrument). Dechorionated and anaesthetized embryos were infected with 50 colony-forming units (CFU) of mCherry-expressing S. aureus Newman by microinjection into the yolk sac at 30 hpf. In order to confirm bacterial numbers, an equal volume of bacterial cells was ejected onto Tryptic Soy Agar (TSA) supplemented with 10 µg/mL chloramphenicol before and after the injection. Antibiotic treatment was performed two hours post infection (hpi) via three different administration routes, namely bath water immersion and microinjection into the yolk sac as well as the caudal vein (CV). The infection procedure and treatment of infected embryos are described in details in the supplementary materials (Table S3).
Embryos were transferred individually to microcentrifuge tubes and washed at least three times with sterile PBS. 200 µL of sterile PBS were added and embryos were mechanically homogenized using a micropestle (Carl Roth, Karlsruhe, Germany). 800 µL of sterile PBS were added to reach a final volume of 1 mL. The homogenates were diluted and plated on tryptic soy agar (TSA). CFU counts were determined after 24 h of incubation at 37 °C.
Embryos were placed in a black 96-well plate (Falcon; Thermo Fisher, Dreieich, Germany) and cryo-anaesthetized by submersion into ice water. Images for quantitative fluorescence analysis were acquired using the following equipment: a fluorescence stereo microscope (M205 FA, Leica Microsystems, Wetzlar, Germany) in combination with a fluorescence illuminator (X-Cite, 200DC, Excelitas Technologies, Waltham, MA, USA) and a microscope camera (DFC7000 T, Leica Microsystems). Quantification of fluorescence was performed using Fiji ImageJ version 2.1.0. Fluorescent Integrated Density (FID) was determined by counting the number of pixels with fluorescence intensity greater than the threshold (10) and multiplying the count with its mean intensity. For confocal imaging, embryos were anaesthetized through immersion in tricaine (945 µM, Sigma-Aldrich) and immobilized in 1.2% low-melting agarose in a flat-bottom 96-well plate. Confocal images and time-lapse series were acquired using the Celldiscoverer 7 with LSM 900 (Zeiss) together with the 5×/0.35 Plan-APOCHROMAT objective.
2. […]

The nature of data set [2]: Phase I metabolic stability, mouse liver microsomes. It counts as in vitro ADME. To be noted: pooled liver microsomes, pH 7.4. The method, then: For the evaluation of phase I metabolic stability, the compound (1 µM) was incubated with 0.5 mg/mL pooled mouse/rat liver microsomes (Xenotech, Kansas City, MO, USA) or human liver microsomes (Corning, NY, USA), 2 mM NADPH and 10 mM MgCl2 at pH 7.4 for 120 min at 37 °C. The metabolic stability of testosterone, verapamil and ketoconazole were determined in parallel to confirm the enzymatic activity of mouse/rat liver microsomes; for human liver microsomes testosterone, diclofenac and propranolol were used. The incubation was stopped after defined time points by precipitation of aliquots of the assay mixture with two volumes of ice-cold acetonitrile containing internal standard (15 nM diphenhydramine). Samples were stored on ice until the end of the incubation and precipitated protein was removed by centrifugation (15 min, 4 °C, 4000× g).

A short description of data set [3]: Plasma protein binding (RED), human plasma. It counts as in vitro ADME. Particulars: pooled plasma, pH 7.4, human plasma. The method, then:
Plasma protein binding was determined using the Rapid Equilibrium Dialysis (RED) system (Thermo Fisher Scientific, Waltham, MA, USA). The compound was diluted in pooled murine (CD-1)/human or Wistar rat plasma (Neo Biotech, Nanterre, France) to 10 µM and added to the respective chamber according to the manufacturer’s protocol, followed by addition of PBS pH 7.4 to the opposite chamber. Samples were taken immediately after addition to the plate as well as after 2, 4 and 5 h by mixing 10 µL with 80 µL ice-cold acetonitrile containing 12.5 nM diphenhydramine as internal standard, followed by addition of 10 µL plasma to samples taken from PBS and vice versa. Samples were stored on ice until the end of the incubation and precipitated protein was removed by centrifugation (15 min, 4 °C, 4000× g, 2 centrifugation steps). Concentration of the remaining test compound at the different time points was analyzed by HPLC-MS/MS (TSQ Altis Plus, Thermo Fisher, Dreieich, Germany). The amount of compound bound to protein was calculated using the equation PPB [%] = 100 − 100 × (amount in buffer chamber/amount in plasma chamber).

Data set [4] in a line: In vivo pharmacokinetics in male CD-1 mice, i.v. More on the design: species or system mouse. To be noted: 5 mg/kg i.v. The protocol:
Pharmacokinetic evaluation of sorangicin A in mice was carried out by Pharmacelsus GmbH (Saarbrücken, Germany). All mouse experiments were approved by and conducted in accordance with the regulations of the local Animal Welfare authorities. Nine adult male CD-1 mice (purchased from Janvier Labs, Le Genest-Saint-Isle, France) were used. Animals were housed in a separate temperature-controlled room (20–24 °C) and maintained in a 12 h light/12 h dark cycle. […] Retrobulbar blood samples were collected from three animals at 0.083, 0.25, 0.5, 1, 3 and 7 h after i.v. administration (two time points/ animal). At each of the designated time points 100 µL blood was collected from the eye into lithium heparin tubes. Quantification of sorangicin A in the generated plasma was performed by LC-MS/MS analysis. The pharmacokinetic analysis was performed by applying a non-compartment model using the Kinetica 5.0 software (Thermo Scientific, Waltham, MA, USA). All given parameters were obtained by trapezoid area calculation.

The structures appear in SMILES notation. Like-named read-outs stand apart in the source and are kept apart here. Bounds are passed on as bounds.

The values below come from publication PMC10454396 (International Journal of Molecular Sciences, 2023).

By microsomal CLint is commonly meant the capacity of the preparation to metabolise the compound, expressed as a volume cleared per time. High values mean rapid turnover, low ones slow turnover. What is called AUC(0-t) is exposure summed from dosing to a finite time, without extrapolation to infinity. Low values mean low exposure, high ones high exposure. As a reminder, the clearance is a measure of how efficiently the substance is removed, as volume per time.

Consider `C/C(=C\[C@H](C)CCCCC(=O)O)[C@@H]1O[C@@H]2C=C[C@H]1OC(=O)\C=C/C=C\C=C\[C@H]1O[C@@H]3C[C@H]1O[C@@H](/C=C/C[C@H]1O[C@H](C[C@H](O)[C@H]1C)[C@@H](O)[C@@H](O)/C=C/CC/C=C/C2)[C@@H]3C` [sorangicin A], for which the “effect on survival of infected embryos” value in data set [1] (bath water immersion 50-100x MIC) is recorded as “did not show any protective effect”; in data set [1] (caudal vein microinjection 20-30 mg/kg, 2 hpi), “significantly extended the lifespan”; in data set [1] (yolk microinjection 20-30 mg/kg, 2 hpi), “significantly increased the survival rate”. Further, the “difference between treated and untreated embryos” value in data set [1] (bath water supplemented with 1000x MIC) was “no difference”. The entries for the “bacterial fluorescence (FID) at 24 hpt” value in data set [1] (caudal vein microinjection) and in data set [1] (yolk microinjection) were “Bacterial fluorescence was suppressed” and “reduced bacterial burden”, respectively. In addition, the “embryos succumbed to the infection” value in data set [1] (caudal vein microinjection 2 hpi, 50 CFU yolk infection) is listed as 75%. The bacterial numbers result in data set [1] (caudal vein microinjection, succumbed embryos) is given as “exceeding 10^4 CFU/embryo”. Besides, the “bacteria recovered (CFU plating) at 120 hpf” value in data set [1] (yolk microinjection) was “complete eradication of bacteria”. The microsomal CLint at 1 µM in data set [2] is 557 ± 297 µL/min/mg. Also, the fraction unbound at 10 µM in data set [3] (10 µM, read-out: PPB (converted)) is 0.13; in data set [3] (read-out: free fraction) it was over 0.1. For the same compound, the “cZ (last measured blood concentration)” value in data set [4] was 7.2 ng/mL. Besides, the “time plasma levels maintained above the MIC of S. aureus” value in data set [4] is recorded as “less than 30 min”. The AUC(0-t) in data set [4] (mouse, plasma, iv) stood at 341 ng·h/mL. The clearance in data set [4] (mouse, plasma, iv, read-out: CL (total clearance) (converted)) was 238 mL/min/kg. The Vd in data set [4] (mouse, plasma, iv, read-out: Vz) was found to be 18 L/kg. Further, the C0 in data set [4] (mouse, plasma, iv, read-out: c0 (maximum blood concentration, extrapolated time point zero)) is 1830 ng/mL. Further, the half-life in data set [4] (mouse, plasma, iv, read-out: t1/2 (terminal phase) (converted)) is 52.2 min.
